Measurements published in US20230257383A1, “COMPOUND SERVING AS BTK INHIBITOR, PREPARATION METHOD THEREFOR, AND USE THEREOF” (CHENGDU HYPERWAY PHARMACEUTICALS CO., LTD., priority 2020, published 2023).

Assays:
[1] = Pharmacokinetic test, oral, SD rats; assay type: in vivo; conditions: rat, plasma, oral 10 mg/kg
Protocol: Each test compound was administered orally (10 mg/kg, 3 rats in each group) to SD rats for pharmacokinetic study. […] Animals were fasted overnight before oral administration, and fed again after 4 h of administration. […] At each collection time point, 3 whole blood samples were collected at a the collection volume of about 0.2-0.3 mL. […] The collected plasma was stored at −20° C. before analysis. 20 μL of plasma sample was added into a 1.6 mL 96-well deep-well plate, added with 200 μL of working internal standard solution (the same volume of vehicle was added to the blank instead of internal standard), vortexed for 1 min, and centrifuged at 5800 rpm for 10 min. 100 μL of the supernatant was added to a 96-well injection plate for LC-MS/MS analysis.

[2] = tested on: DOHH-2-luc tumor cells in the mouse brain; experiment: DOHH-2-Luc intracerebral tumor drug efficacy model test; assay type: in vivo; conditions: for inhibitory effect against the tumor compared with Tirabrutinib: DOHH2 tumor model in the mouse brain, same dose of 30 mg/kg (BID), FIG. 3; for fluorescence image of brain tumor (red area = tumor size): DOHH-2-Luc intracerebral model, same dose, FIG. 4; for side effects: mouse, 30 mg/kg (BID), after 21 days of administration
Protocol: Test Example 8: DOHH-2-Luc Intracerebral Tumor Drug Efficacy Model Test
DOHH-2-luc tumor cells were cultured in vitro with RPMI 1640 medium containing 10% fetal bovine serum and 500 ng/mL puromycin in a 37° C., 5% CO2 incubator. […] Tumor cells in logarithmic growth phase were used for inoculation of tumors in vivo.
2. Inoculation of Tumor Cell and Grouping
After the animal was anesthetized by intramuscular injection of Zoletil, it was fixed on the operating table in a prone position. The skin on the top of the head was disinfected with iodine and 75% alcohol respectively, and the skin was cut about 0.5 cm along the midline of the head to expose the coronal and sagittal lines. Being located about 0.5-1.0 mm above the coronal line and about 2 mm to the right of the sagittal line by using a brain locator, a hole was drilled with a 1 mL syringe needle. The micro-injector was inserted vertically to a depth of 3 mm at the location, slowly (about 1 min) injected with 3×10^5 DOHH-2-luc tumor cells/2 μL suspension and kept for 1 min. After pulling out the needle, the needle hole was quickly sealed with bone wax, and the wound was sutured with a stapler. About the 7th day after tumor inoculation, the animals were randomly divided into 5 groups according to the body weight of the animals and the optical signal intensity of the tumor site, with 5 animals in each group.
The mice were imaged 1-2 times a week according to their state using the small animal in vivo imaging system IVIS Lumina III (Perkin Elmer). The bioluminescence imaging (BLI, unit: photons/s) signal intensity at the tumor cell inoculation site of mouse was monitored as the main indicator for evaluating tumor growth and drug efficacy. The specific operation is as follows:
The mice were intraperitoneally injected with D-luciferin (15 mg/mL, 5 μL/g according to the body weight of the experimental animal), and then inhaled anesthetized with 1%-2% isoflurane. 10 min after the injection of D-luciferin, the animals were imaged with IVIS Lumina III. The data were analyzed and processed using Living Image software (Perkin Elmer), and the optical signal intensity in ROI (regions of interest) of each animal was calculated.

[3] = tested on: TMD8 mouse subcutaneous xenograft tumor; experiment: TMD8 pharmacodynamic model test; assay type: in vivo; conditions: same dose of 20 mg/kg, FIG. 2
Protocol: Test Example 7: TNMD8 Pharmacodynamic Model Test
Human diffuse large B-cell lymphoma TMD8 cells were monolayer-cultured in vitro in RPNHI1640 medium with […], 100 U/mL penicillin and 100 μg/mL streptomycin, in a 37° C., […] incubator. Routine digestion with trypsin-EDTA was performed twice a week for passaging. When the cell density was […] and the number reached the requirement, cells were harvested, counted and inoculated. 0.2 ml (1×10^7 cells) of TMVD8 cells (added with matrigel at a volume ratio of 1:1) were subcutaneously inoculated on the right back of each mouse. The mice were administered in groups when the average tumor volume reached about 137 mm^3. Tumor diameters were measured twice a week with vernier calipers. The tumor volume was calculated by the formula V=0.5 a×b^2, where a and b represent the long and short diameters of the tumor, respectively.

[4] = tested on: TMD8 cell proliferation; experiment: In vitro cell proliferation inhibitory activity test (CTG), TMD8; assay type: cell-based; conditions: Homo sapiens, TMD8, 72 h, TMD8 cells
Protocol: Test Example 4: In Vitro Cell Proliferation Inhibitory Activity Test
Cells were cultured in 1640 medium, added with 10% inactivated FBS and 1% double antibiotics, and cultured at 37° C. and 5% CO2.
(1) Cells were routinely cultured until the cell density was 80%-90%, and the cells were harvested when their number reached the requirement.
(2) Cells were resuspended with corresponding culture medium, counted, and prepared into cell suspension at appropriate density.
(3) The cell suspension was added to a 96-well plate, 100 μL per well.
(4) Cells were cultured overnight in a 37° C., 5% CO2 incubator.
(1) The compounds to be tested were diluted with DMSO to make a stock solution with a final concentration of 20 mM for later use.
(2) The stock solution was diluted 10 times from 20 mM to 2 mM with DMSO, and then diluted 3 times from 2 mM to 9 concentrations.
(3) The blank control wells were cells plus 0.5% DMSO, as high-reading control wells.
(4) Wells with no cells and only medium were used as low-reading control wells.
4: Cell treatment with compound
(1) 24 h after the cells were plated, the compounds acted alone, and 99 μL of growth medium was added to each well, followed by 1 μL of the compound prepared in step 3. The plate was shaken gently to mix uniformly, and then placed in a 37° C., 5% CO2 incubator.
(2) The cell plate was placed in an incubator for 72 h.
5: Detection by CTG method
(1) The cell plate to be tested was placed at room temperature for 30 min, and 100 μL of medium was discarded from each well.
(2) 100 μL of CTG reagent (CelltiterGlo kit) was added to each well, placed on a fast shaker for 2 min, and stood at room temperature in the dark for 30 min.
(3) The chemiluminescent signal value was read with the Envision instrument.
IC50 was calculated by using GraphPad Prism 8 software. The IC50 (half inhibitory concentration) of the compound was derived using the following nonlinear fitting formula, and the results are shown in the following table:
Y=Bottom+(Top−Bottom)/(1+10^((Log IC50−X)×HillSlope))
X: log value of compound concentration, Y: inhibition rate (% inhibition)
Inhibition rate (% inhibition)=(reading of high-reading control well-reading of compound well)/(reading of high-reading control well-reading of low-reading control well)×100

| AUC(0-inf) [1] [ng·h/mL] | Cmax [1] [ng/mL] | half-life ([1]; read-out: T½ (converted)) [min] | SMILES | inhibitory effect against the tumor compared with Tirabrutinib [2] | fluorescence image of brain tumor (red area = tumor size) [2] | side effects [2] | inhibitory effect against the tumor compared with Tirabrutinib [3] | IC50 [4] [nM] |
| --- | --- | --- | --- | --- | --- | --- | --- | --- |
| 17200 | 1550 | 167 | Nc1nccn2c(C34CCC(CO)(CC3)OC4)nc(-c3ccc(C(F)(F)c4ccccc4F)cc3)c12 [Example 145] |  |  |  |  |  |
|  |  |  | Nc1nccn2c(C3CCC(CO)OC3)nc(-c3ccc(C(F)(F)c4ccccc4)cc3)c12 (single isomer, unassigned) [Example 111-P1] | significantly better inhibitory effect against the tumor than Tirabrutinib | very good inhibitory effect against the tumor, with almost no red area | no side effects had been found | significantly better inhibitory effect against the tumor than Tirabrutinib |  |
|  |  |  | Nc1nccn2c(C34CCC(CO)(CC3)OC4)nc(-c3ccc(C(F)(F)c4ccccc4)cc3)c12 [Example 125] | significantly better inhibitory effect against the tumor than Tirabrutinib | very good inhibitory effect against the tumor, with almost no red area | no side effects had been found | significantly better inhibitory effect against the tumor than Tirabrutinib | 92.4 |
